Assays:
Assay type in all cases: in vivo
soybean [1] = experiment: Test Example 5: effect on crop by foliage application, plastic box (symbol d); conditions: 320 g/ha, 3 weeks after application
Procedure, shortened: (§1)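 Foliage-application test plants come from spot sowing in sterilized diluvial soil under a soil layer of about 1.5 cm, grown at 25° C. to 30° C. in a greenhouse.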

soybean [2] = experiment: Test Example 4: effect on crop by soil treatment (symbol d); conditions: 320 g/ha
Procedure, shortened: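 Crop seeds, among them rice, wheat, beet and rapeseed, were sown in sterilized diluvial soil and covered with about 1.5 cm of soil. Boxes were kept in a greenhouse at 25° C. to 30° C. for plant growth.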

Abutilon theophrasti [3] = experiment: Test Example 4: herbicidal effect by soil treatment (symbol M); conditions: 320 g/ha
Procedure, shortened: (§2)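 Seeds were sown in sterilized diluvial soil, covered with about 1.5 cm of soil, and the soil surface was sprayed with a water-diluted emulsion of the compound at a predetermined rate. Plants grew in a greenhouse at 25° C. to 30° C.; effects were scored visually 3 weeks after application.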

Abutilon theophrasti [4] = experiment: Test Example 5: herbicidal effect by foliage application, plastic box (symbol M); conditions: 320 g/ha, 3 weeks after application
Procedure, shortened: (§3)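 Visual herbicidal score, taken three weeks post-application, of seedlings sprayed on the foliage with water-diluted emulsion at a predetermined amount; plants were 14 days old, greenhouse-raised at 25° C. to 30° C.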

Apera spica-venti = experiment: Test Example 4: herbicidal effect by soil treatment (symbol L); conditions: 320 g/ha
Procedure, shortened: as §2

transplanted rice plant = experiment: Test Example 1: effect on crop, application before weed generation in submerged conditions (symbol a); conditions: application herbicide amount 320 g/ha
Procedure, shortened: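 Alluvial soil pots flooded to 4 cm water, sown with Echinochloa oryzacola, Scirpus juncoides and Monochoria vaginalis, then transplanted with 2.5 leaf stage rice seedlings; pre-emergence application. Greenhouse 25° C. to 30° C.; scored 0–5 by herbicidal ratio 3 weeks after application.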

Avena fatua = experiment: Test Example 5: herbicidal effect by foliage application, plastic box (symbol I); conditions: 320 g/ha, 3 weeks after application
Procedure, shortened: as §3

[5] = test system: directly sowed rice plant; experiment: Test Example 3: effect on crop by foliage application, Wagner pot (symbol b); conditions: application herbicide amount 320 g/ha
Procedure, shortened: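 Wagner pot (1/10000 are), alluvial soil, submerged 0.1–0.5 cm; sown E. crus-galli var. crus-galli, L. chinensis, C. difformis, rice; greenhouse 25–30 °C.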

Digitaria ciliaris = experiment: Test Example 5: herbicidal effect by foliage application, plastic box (symbol F); conditions: 320 g/ha, 3 weeks after application
Procedure, shortened: as §3

Veronica persica = experiment: Test Example 5: herbicidal effect by foliage application, plastic box (symbol R); conditions: 320 g/ha, 3 weeks after application
Procedure, shortened: as §3

[6] = test system: Echinochloa crus-galli var. crus-galli; experiment: Test Example 4: herbicidal effect by soil treatment (symbol H); conditions: 320 g/ha
Procedure, shortened: as §2

Galium spurium = experiment: Test Example 4: herbicidal effect by soil treatment (symbol Q); conditions: 320 g/ha
Procedure, shortened: as §2

[7] = test system: Echinochloa oryzacola Vasing.; experiment: Test Example 1: herbicidal activity, application before weed generation in submerged conditions (symbol A); conditions: application herbicide amount 320 g/ha
Procedure, shortened: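 Weeds are sown into submerged alluvial soil alongside transplanted 2.5-leaf rice, and the compound, as an emulsion diluted to a set rate, is applied onto the water before emergence. Rating on the 0–5 herbicidal-ratio scale follows 3 weeks of greenhouse growth at 25–30 °C.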

corn = experiment: Test Example 5: effect on crop by foliage application, plastic box (symbol c); conditions: 320 g/ha, 3 weeks after application
Procedure, shortened: as §1

Chenopodium album = experiment: Test Example 4: herbicidal effect by soil treatment (symbol O); conditions: 320 g/ha
Procedure, shortened: as §2

Compound	d: soybean, effect on crop (criteria 0-5) (soybean [1])	d: soybean, effect grade on crop (soybean [2])	M: Abutilon theophrasti, herbicidal effect grade (Abutilon theophrasti [3])	M: Abutilon theophrasti, herbicidal effect (criteria 0-5) (Abutilon theophrasti [4])	L: Apera spica-venti, herbicidal effect grade (Apera spica-venti)	Effect grade on crop, a: transplanted rice plant (transplanted rice plant)	I: Avena fatua, herbicidal effect (criteria 0-5) (Avena fatua)	effect on crop b (directly sowed rice plant), grade 0-5 [5]	F: Digitaria ciliaris, herbicidal effect (criteria 0-5) (Digitaria ciliaris)	R: Veronica persica, herbicidal effect (criteria 0-5) (Veronica persica)	H: Echinochloa crus-galli var. crus-galli, herbicidal effect grade [6]	Q: Galium spurium, herbicidal effect grade (Galium spurium)	Herbicidal effect grade, A: Echinochloa oryzacola Vasing. [7]	c: corn, effect on crop (criteria 0-5) (corn)	O: Chenopodium album, herbicidal effect grade (Chenopodium album)
CC(CC1CC(O)=C(c2c(C)cc(C)cc2C)C1=O)=NOC1CCCC1 (stereo not drawn) [1-106]	0 (Herbicidal ratio of 5% or lower (almost no effect))	0 (Herbicidal ratio of 5% or lower (almost no effect))	0 (Herbicidal ratio of 5% or lower (almost no effect))	1 (Herbicidal ratio of 5% or higher and lower than 20%)	5 (Herbicidal ratio of 90% or more (almost completely withered))	5 (Herbicidal ratio of 90% or more (almost completely withered))	5 (Herbicidal ratio of 90% or more (almost completely withered))	5 (Herbicidal ratio of 90% or more (almost completely withered))	5 (Herbicidal ratio of 90% or more (almost completely withered))	1 (Herbicidal ratio of 5% or higher and lower than 20%)	5 (Herbicidal ratio of 90% or more (almost completely withered))	0 (Herbicidal ratio of 5% or lower (almost no effect))	5 (Herbicidal ratio of 90% or more (almost completely withered))	5 (Herbicidal ratio of 90% or more (almost completely withered))	0 (Herbicidal ratio of 5% or lower (almost no effect))
CC(CC1CC(O)=C(c2c(C)cc(C)cc2C)C1=O)=NOCC1CC1(F)F (stereo not drawn) [1-109]	0 (Herbicidal ratio of 5% or lower (almost no effect))	0 (Herbicidal ratio of 5% or lower (almost no effect))	4 (Herbicidal ratio of 70% or higher and lower than 90%)	3 (Herbicidal ratio of 40% or higher and lower than 70%)	5 (Herbicidal ratio of 90% or more (almost completely withered))	5 (Herbicidal ratio of 90% or more (almost completely withered))	5 (Herbicidal ratio of 90% or more (almost completely withered))	5 (Herbicidal ratio of 90% or more (almost completely withered))	5 (Herbicidal ratio of 90% or more (almost completely withered))	3 (Herbicidal ratio of 40% or higher and lower than 70%)	5 (Herbicidal ratio of 90% or more (almost completely withered))	0 (Herbicidal ratio of 5% or lower (almost no effect))	5 (Herbicidal ratio of 90% or more (almost completely withered))	5 (Herbicidal ratio of 90% or more (almost completely withered))	0 (Herbicidal ratio of 5% or lower (almost no effect))
CC(CC1CC(O)=C(c2c(C)cc(C)cc2C)C1=O)=NOCCS(C)(=O)=O (stereo not drawn) [1-110]	0 (Herbicidal ratio of 5% or lower (almost no effect))	0 (Herbicidal ratio of 5% or lower (almost no effect))	0 (Herbicidal ratio of 5% or lower (almost no effect))	0 (Herbicidal ratio of 5% or lower (almost no effect))	5 (Herbicidal ratio of 90% or more (almost completely withered))	5 (Herbicidal ratio of 90% or more (almost completely withered))	5 (Herbicidal ratio of 90% or more (almost completely withered))	5 (Herbicidal ratio of 90% or more (almost completely withered))	5 (Herbicidal ratio of 90% or more (almost completely withered))	3 (Herbicidal ratio of 40% or higher and lower than 70%)	5 (Herbicidal ratio of 90% or more (almost completely withered))	0 (Herbicidal ratio of 5% or lower (almost no effect))	3 (Herbicidal ratio of 40% or higher and lower than 70%)	5 (Herbicidal ratio of 90% or more (almost completely withered))	0 (Herbicidal ratio of 5% or lower (almost no effect))
CC(CC1CC(O)=C(c2c(C)cc(C)cc2C)C1=O)=NOCC1OCCO1 (stereo not drawn) [1-111]	3 (Herbicidal ratio of 40% or higher and lower than 70%)	1 (Herbicidal ratio of 5% or higher and lower than 20%)	4 (Herbicidal ratio of 70% or higher and lower than 90%)	1 (Herbicidal ratio of 5% or higher and lower than 20%)	5 (Herbicidal ratio of 90% or more (almost completely withered))	5 (Herbicidal ratio of 90% or more (almost completely withered))	5 (Herbicidal ratio of 90% or more (almost completely withered))	5 (Herbicidal ratio of 90% or more (almost completely withered))	5 (Herbicidal ratio of 90% or more (almost completely withered))	1 (Herbicidal ratio of 5% or higher and lower than 20%)	5 (Herbicidal ratio of 90% or more (almost completely withered))	0 (Herbicidal ratio of 5% or lower (almost no effect))	5 (Herbicidal ratio of 90% or more (almost completely withered))	5 (Herbicidal ratio of 90% or more (almost completely withered))	0 (Herbicidal ratio of 5% or lower (almost no effect))
COc1ccc(CON=C(C)CC2CC(O)=C(c3c(C)cc(C)cc3C)C2=O)cc1 (stereo not drawn) [1-112]	0 (Herbicidal ratio of 5% or lower (almost no effect))	0 (Herbicidal ratio of 5% or lower (almost no effect))	0 (Herbicidal ratio of 5% or lower (almost no effect))	1 (Herbicidal ratio of 5% or higher and lower than 20%)	5 (Herbicidal ratio of 90% or more (almost completely withered))	5 (Herbicidal ratio of 90% or more (almost completely withered))	5 (Herbicidal ratio of 90% or more (almost completely withered))	5 (Herbicidal ratio of 90% or more (almost completely withered))	5 (Herbicidal ratio of 90% or more (almost completely withered))	3 (Herbicidal ratio of 40% or higher and lower than 70%)	4 (Herbicidal ratio of 70% or higher and lower than 90%)	0 (Herbicidal ratio of 5% or lower (almost no effect))	5 (Herbicidal ratio of 90% or more (almost completely withered))	4 (Herbicidal ratio of 70% or higher and lower than 90%)	0 (Herbicidal ratio of 5% or lower (almost no effect))
